Measured values from patent US20230357440A1, “BISPECIFIC ANTIBODY AGAINST CD3 AND CD20 IN COMBINATION THERAPY FOR TREATING FOLLICULAR LYMPHOMA” (GENMAB A/S, priority 2020, published 2023).

How the values were obtained:
[1] = system: Human Burkitt lymphoma Raji cells; format: cell-based; conditions: no epcoritamab, bendamustine 0-20 μM, 48 hours
Protocol: (§1) Bendamustine, an alkylating agent that causes intra- and inter-strand crosslinks between DNA bases, is approved for treatment of CLL and indolent B-NHL. This experiment was performed to determine whether bendamustine impacts the anti-tumor activity of epcoritamab by using in vitro T-cell activation and cytotoxicity assays.
(§2) Briefly, Human Burkitt lymphoma (Raji [ATCC, cat. no. CCL-86]) and DLBCL (SU-DHL-4 [Deutsche Sammlung von Mikroorganismen und Zellkulturen—DSMZ, cat. no. ACC-495]) cell lines were used as target cells. Cells were cultured in culture medium (RPMI 1640 with HEPES and L-Glutamine supplemented with 10% heat-inactivated donor bovine serum with iron, and 1% [v/v] penicillin/streptomycin) to which 2 mM L-glutamine, and 1 mM sodium pyruvate were added, at 37° C., 5% CO2. […] Isolated cells were washed twice in phosphate buffered saline (PBS) and counted using acridine orange/propidium iodide (AO/PI) viability staining solution (Nexcelom Bioscience) on a Cellometer® Auto 2000 Cell Viability Counter. […] B-cell viability and T-cell activation were measured by flow cytometry (count of CD22-positive cells; expression of the activation markers CD69, CD25, and CD107 [LAMP-1] on CD4+ and CD8+ T cells). The percentage cytotoxicity was calculated as follows: […]

[2] = system: DLBCL SU-DHL-4 cells; format: cell-based, human; conditions: no epcoritamab, bendamustine 0-20 μM, 48 hours
Protocol: as §1, §2

[3] = system: double-refractory follicular lymphoma; conditions: Salles et al., Haematologica 2017; cited from earlier work
[4] = system: T cells isolated from human healthy donor buffy coats; test: in vitro T-cell activation assay (flow cytometry; CD69, CD25, CD107/LAMP-1); format: cell-based
Protocol: as §1
Briefly, Human Burkitt lymphoma (Raji [ATCC, cat. no. CCL-86]) and DLBCL (SU-DHL-4 [Deutsche Sammlung von Mikroorganismen und Zellkulturen—DSMZ, cat. no. ACC-495]) cell lines were used as target cells. Cells were cultured in culture medium (RPMI 1640 with HEPES and L-Glutamine supplemented with 10% heat-inactivated donor bovine serum with iron, and 1% [v/v] penicillin/streptomycin) to which 2 mM L-glutamine, and 1 mM sodium pyruvate were added, at 37° C., 5% CO2. T cells, which were isolated from human healthy donor buffy coats by negative selection using the RosetteSep™ Human T Cell Enrichment Cocktail (Stemcell Technologies) followed by density centrifugation over a Ficoll gradient, both according to the manufacturer's instructions, were used as effector cells. Isolated cells were washed twice in phosphate buffered saline (PBS) and counted using acridine orange/propidium iodide (AO/PI) viability staining solution (Nexcelom Bioscience) on a Cellometer® Auto 2000 Cell Viability Counter. T cells (100,000 cells/well) were incubated with Raji or SU-DHL-4 cells (50,000 cells/well) in culture medium in the presence of epcoritamab (0.033 pg/mL-333 ng/mL) and bendamustine (0-20 μM) at 37° C., 5% CO2 for 48 hours. B-cell viability and T-cell activation were measured by flow cytometry (count of CD22-positive cells; expression of the activation markers CD69, CD25, and CD107 [LAMP-1] on CD4+ and CD8+ T cells). The percentage cytotoxicity was calculated as follows: […]

[5] = system: relapsed/refractory (R/R) B-NHL; test: epcoritamab monotherapy clinical trial in R/R B-NHL (NCT03625037); format: in vivo, human; conditions: R/R B-NHL patients, preliminary data
Text: Epcoritamab as monotherapy is currently in a clinical trial for the treatment of relapsed/refractory (R/R) B-NHL (ClinicalTrials.gov Identifier: NCT03625037).

[6] = system: previously untreated follicular lymphoma; test: Phase 1b study of epcoritamab in combination with rituximab and bendamustine (BR); format: in vivo
Protocol: The Part 1 dose escalation assesses the initial safety, tolerability, and clinical activity of epcoritamab in combination with BR. Epcoritamab is initially be administered in combination with BR in a 3-subject cohort. DLTs are evaluated during the first 28 days. Depending on the number of DLTs observed in the initial 3 subjects, administration of epcoritamab (full dose: 48 mg or 24 mg) in combination with BR is performed in an additional 3 patients as shown in FIG. 3.
In Part 2, epcoritamab is administered (with the dosing regimen determined in the dose escalation part) in combination with BR. The expansion will include 20 subjects in order to evaluate the preliminary clinical activity of the combination, in addition to safety, tolerability, PK, pharmacodynamic, and immunogenicity data.
A step-up dosing method is used for epcoritamab to mitigate the potential for CRS: priming dose (0.16 mg) on cycle 1 day 1, followed by intermediate dose (0.8 mg) on cycle 1 day 8, full dose (24 mg or 48 mg) on cycle 1 day 15 and day 22, and full dose in subsequent cycles. […] Bendamustine (90 mg/m^2) is administered intravenously daily on days 1 and 2 of cycles 1-6. If bendamustine is started later than day 1 of a cycle, then planned day 1 of the next cycle is calculated from the day when bendamustine was actually initiated in order to maintain the regular cycle interval of 28 days. […]
Safety is assessed by measuring adverse events, laboratory test results, ECGs, vital sign measurements, physical examination findings, and ECOG performance status. Also assessed are immune effector cell-associated neurotoxicity syndrome (e.g., as described by Lee et al., Biol BloodMarrow Transplant 2019; 25:625-638), constitutional symptoms (B symptoms), tumor flare reaction, and survival.

[7] = system: CD20-expressing Raji-luc tumor cells; conditions: even in the presence of an excess of rituximab variant with inert Fc domain (IgG1-RTX-FEAR); cited from earlier work
[8] = system: primary DLBCL and follicular lymphoma patient biopsies; conditions: cited from earlier work

Compound: Cn1c(CCCC(=O)O)nc2cc(N(CCCl)CCCl)ccc21 [bendamustine, 4-[5-[Bis(2-chloroethyl)amino]-1-methyl-iH-benzo[d]imidazole-2-yl]butanoic acid]
- number of viable B cells, bendamustine alone [1]: decreased the number of viable B cells in a dose dependent manner
- number of viable B cells, bendamustine alone [2]: decreased the number of viable B cells in a dose dependent manner

Compound: CC[C@H](Nc1ncnc2[nH]cnc12)c1nc2cccc(F)c2c(=O)n1-c1ccccc1 [idelalisib]
- 1-year PFS [3]: 43%
- toxicities [3]: several toxicities leading to treatment discontinuation

Compound: epcoritamab: IgG1 bispecific CD3×CD20 antibody, heavy/light chains SEQ ID NOs: 24, 25 and 26, 27; CAS 2134641-34-0
- epcoritamab-induced T-cell activation in the presence of bendamustine ([4]; bendamustine 0-20 μM, Raji or SU-DHL-4 cells, 48 hours): not affected by the presence of bendamustine at all concentrations tested
- upregulation of T-cell activation markers on CD4+ T cells in the presence of bendamustine ([4]; bendamustine 0-20 μM, data not shown): not affected by bendamustine
- activation of CD8+ T cells (upregulation of CD69, CD25 and LAMP-1) ([4]; in presence of Raji or SU-DHL-4 cells, epcoritamab 0.033 pg/mL-333 ng/mL, 48 hours): concentration-dependent activation of CD8+ T cells
- dose-limiting toxicities [5]: no dose-limiting toxicities reported
- tolerated dose ([5]; up to at least 48 mg, including 60 mg): at least 48 mg
- responders in expansion phase ([6]; 48 mg expansion, as of Sep. 8, 2021, preliminary, non-validated data): 1
- responders in dose escalation phase ([6]; as of Sep. 8, 2021, 17 patients dosed in total, preliminary, non-validated data): 5
- grade of all CRS events ([6]; preliminary data): Grade ½
- most common related AEs ([6]; preliminary data): CRS and Nausea
- tumor growth in the xenograft model [7]: effectively reduce tumor growth
- tumor cell kill ([8]; biopsy taken 2 weeks after administering the anti-CD20 antibody): up to 40%
- T-cell-mediated cytotoxicity in patient biopsies [8]: induced T-cell-mediated cytotoxicity
